“Also recorded” adds a separate entry of the source. Square brackets hold non-standard residues; d marks the D form. Ends that are not written are not given here. Peptide text beside a SMILES is read from it. * marks the point of attachment. Lys(DNP) = Lys carrying DNP quencher; Sta = CC(C)C[C@H](N)[C@@H](O)CC(=O)O; Isovaleryl = CC(C)CC(=O)*; Nle = CCCC[C@H](N)C(=O)O
Assays:
[1] = test system: pepstatin-sensitive protease activity in rat serum; assay: Sap6 substrate cleavage in blood/serum from rat biofilm catheter and IV infection models; type: biochemical
Experimental: FIG. 16 depicts the detection of pepstatin-sensitive activity in serum from C. albicans biofilm rat catheter and disseminated infection models. Detection of pepstatin-sensitive protease activity with the TFSYnRWP (SEQ ID NO: 23) fluorogenic probe in rat serum samples. Blood was collected both directly from C. albicans biofilm-infected catheters and peripherally 48 hours post biofilm infection (N=3 rats). Blood was also sampled peripherally 24 hours post IV infection with C. albicans (10^6 CFUs) (N=3 rats). Uninfected rats were used as a healthy control (N=3 rats). Activity assays were carried out using serum samples that had been diluted 25-fold into pH 4.0 buffer.
FIG. 22 depicts detection of infection-specific aspartyl protease activity in serum from a rat catheter biofilm model using the Sap6-cleavable probe. Serum was collected both directly from the biofilm-infected catheter, peripherally from the rat jugular vein, and from the jugular vein of an uninfected control rat (n=2).
To provide validation of the protease activity-based diagnostic approach in a rat biofilm catheter model, blood was directly sampled from (i) the catheters of rats with introduced C. albicans biofilms, (ii) peripherally from the same rats, and, (iii) following IV infection, and (iv) as a control, from rats not exposed to C. albicans.

[2] = test system: aspartyl protease activity in conditioned media; assay: Pepstatin pretreatment of conditioned media, fluorogenic substrate cleavage; type: biochemical, C. albicans; settings: 10 μM pepstatin, VFILWRTE and TFSYnRWP substrates
Experimental: FIGS. 4A-4B depict probe activity in biofilm and planktonic conditioned media following pepstatin A pretreatment and in conditioned media from sap5Δ/Δ, sap6Δ/Δ, and sap5/6ΔΔ/ΔΔ deletion strains. […] Matched comparison to wild-type (SN425) conditioned media is provided (FIG. 12).
To further confirm probe selectivity for the target proteases, conditioned media preparations were also assayed from sap5Δ/Δ and sap6Δ/Δ single deletion mutant strains and a sap5/6ΔΔ/ΔΔ double deletion mutant strain (FIG. 4B). […] Indeed, shotgun proteomics analysis on matched biofilm conditioned media preparations from the wild-type reference and mutant strains confirmed an increase in Sap6 levels associated with the sap5Δ/Δ mutant strain. In contrast, there was no observable increase in Sap5 levels associated with the sap6Δ/Δ mutant strain in agreement with the activity results (Table 5). We note that substrate cleavage in the sap5/6ΔΔ/ΔΔ double deletion mutant strain indicates proteolytic activity from additional proteases that are in lower abundance, possibly reflecting compensation for loss of SAP5/SAP6.

Kex2 = assay: MSP-MS profiling of conditioned media with inhibitor pretreatment, cleavage sites assigned to Kex2; type: biochemical, C. albicans; settings: 1 mM EDTA or 10 μM pepstatin A
Description: FIG. 8 depicts global substrate specificity profiling of recombinant Kex2 from Saccharomyces cerevisiae. (top) Time-dependent generation of cleavages following dibasic (P2-P1) K/R-R residues in the MSP-MS library for recombinant Kex2 and C. albicans wild-type (SN425) conditioned media from 24-hour biofilm and planktonic cultures. Cleavage sites assigned to Kex2 in the conditioned media profiles were sensitive to EDTA and insensitive to pepstatin treatments. […] This is illustrated in the differential cleavage pattern of an example MSP-MS peptide.

[3] = test system: conditioned media from C. albicans biofilm and planktonic cultures; assay: Fluorogenic substrate cleavage in biofilm and planktonic conditioned media; type: biochemical; settings: for preferential cleavage by biofilm culture medium (B/P): biofilm versus planktonic conditioned media
Experimental: Activity assays with internally quenched fluorogenic substrates were performed up to one hour in black 96-well round bottom plates (Costar) using a BioTek Synergy H4 Hybrid Multi-Mode Microplate Reader set to 37° C. The following excitation/emission wavelengths were used: 328 nm/393 nm (gain 96) for MCA and Ex/Em of 485 nm/538 nm (gain 94) for 5-FAM. RFU was corrected to moles of product formation as appropriate using a conversion factor calculated from the total proteolytic hydrolysis of each substrate. Activity assays with conditioned media were performed with 10 μM substrate and either 20 μg/mL protein sample for […] (SEQ ID NO: 22) or 10 μg/mL protein sample for TFSYnRWP (SEQ ID NO: 23). For assays with recombinant Saps, 2 μg/mL Sap5 and Sap6 were used with the following substrate concentrations: […] (10 μM; SEQ ID NO: 22), IYRnHVQL (25 μM; SEQ ID NO: 24), WPSnNKVG (25 μM; SEQ ID NO: 25), and TFSYnRWP (10 μM; SEQ ID NO: 23).

recombinant Sap6 = assay: Internally quenched fluorogenic substrate activity assay with recombinant Sap6; type: biochemical, C. albicans; settings: 2 μg/mL recombinant Sap, 10 μM substrate, pH 5.5
Experimental: Specific activity was determined with 2 μg/mL recombinant Saps and the substrates […] (10 μM, SEQ ID NO: 22), IYRnHVQL (25 μM; SEQ ID NO: 24), WPSnNKVG (25 μM; SEQ ID NO: 25), and TFSYnRWP (10 μM; SEQ ID NO: 23). RFU was converted to moles of product formation using a correction factor experimentally determined for each substrate.
For each protease, two 8-mer peptide sequences containing P4-P4′ residues from Sap5- or Sap6-favored cleavages were selected for incorporation into internally quenched fluorogenic peptides. The fluorogenic probes were synthesized bearing either a 5-carboxyfluorescein or 7-methoxycoumarin fluorophore with a corresponding quencher positioned at opposing termini such that peptide cleavage yields a fluorescence signal.
Activity assays with internally quenched fluorogenic substrates were performed up to one hour in black 96-well round bottom plates (Costar) using a BioTek Synergy H4 Hybrid Multi-Mode Microplate Reader set to 37° C. The following excitation/emission wavelengths were used: 328 nm/393 nm (gain 96) for MCA and Ex/Em of 485 nm/538 nm (gain 94) for 5-FAM. RFU was corrected to moles of product formation as appropriate using a conversion factor calculated from the total proteolytic hydrolysis of each substrate. Activity assays with conditioned media were performed with 10 μM substrate and either 20 μg/mL protein sample for […] […]

Q: What does the source list for `CC(C)CC(=O)N[C@H](C(=O)N[C@H](C(=O)N[C@@H](CC(C)C)[C@@H](O)CC(=O)N[C@@H](C)C(=O)N[C@@H](CC(C)C)[C@@H](O)CC(=O)O)C(C)C)C(C)C` [Pepstatin A] (Isovaleryl-VV[Sta]A[Sta]-OH)?
A: effect of pepstatin pretreatment on TFSYnRWP cleavage in blood of infected rats ([1]; pepstatin pretreatment): significantly reduced; effect of pepstatin pretreatment on substrate cleavage [2]: significant reduction in substrate cleavage; sensitivity of Kex2-assigned cleavage sites to inhibitor treatment (Kex2): insensitive

Q: With `O=C(O)CN(CCN(CC(=O)O)CC(=O)O)CC(=O)O` [EDTA] as the compound, how does the “sensitivity of Kex2-assigned cleavage sites to inhibitor treatment” value (Kex2) read?
A: sensitive

Q: “VFILWRTE (also: CPQ2 quencher, place not given here, 5-FAM, place not given here, DArg-DArg-NH2, place not given here) [internally quenched fluorogenic substrate for Sap5]” was tested. Which “preferential cleavage by biofilm culture medium (B/P)” value [3] did it give?
A: 10 fold

Q: Which results are given for “DArg-DArg-Lys(MCA)-Thr-Phe-Ser-Tyr-Nle-Arg-Trp-Pro-Lys(DNP) ({dR-dR-Lys(MCA)}-TFSY[Nle]RWP-{Lys(DNP)}) [TFSYnRWP, internally quenched fluorogenic substrate for Sap6]”?
A: substrate cleavage in blood harvested from infected rats ([1]; C. albicans biofilm catheter or IV infected rats): readily detected; cleavage activity in uninfected rats ([1]; rats not exposed to C. albicans): absent; specific activity and selectivity for Sap6 (recombinant Sap6): highest specific activity and selectivity; also recorded: high specific activity and selectivity; preferential cleavage by biofilm culture medium (B/P) [3]: 4.4 fold; substrate activity in sap5Δ/Δ deletion strain conditioned media ([3]; sap5Δ/Δ single deletion strain): increased; substrate cleavage, biofilm versus planktonic conditioned media ([3]; wild-type, 24-hour conditioned media, 10 μM substrate): higher biofilm activity

Source: patent US11112409B2, “Systems and compositions for diagnosing pathogenic fungal infection and methods of using the same” (priority 2016, dated 2021)
